Measured values: PMC8371461 (Frontiers in Pharmacology, 2021)

Legend:
Assay in all cases: kinome scan
Format in all cases: binding
[1] = target: T1, AAK1 (Homo sapiens, UniProt Q2M2I8); conditions: 10 µM
T1 construct: purchased DiscoverX (KINOMEscan)

[2] = target: T2, ABL1(E255K)-phosphorylated (Homo sapiens, UniProt P00519, E255K); conditions: 10 µM
T2 construct: purchased DiscoverX (KINOMEscan)

[3] = target: T3, ABL1(H396P)-nonphosphorylated (Homo sapiens, UniProt P00519, H396P); conditions: 10 µM
T3 construct: purchased DiscoverX (KINOMEscan)

[4] = target: T4, ABL1(Q252H)-phosphorylated (Homo sapiens, UniProt P00519, Q252H); conditions: 10 µM
T4 construct: purchased DiscoverX (KINOMEscan)

[5] = target: T5, ARK5 (Homo sapiens, UniProt O60285); conditions: 10 µM
T5 construct: purchased DiscoverX (KINOMEscan)

[6] = target: T6, BTK (Homo sapiens, UniProt Q06187); conditions: 10 µM
T6 construct: purchased DiscoverX (KINOMEscan)

[7] = target: T7, CDKL5 (Homo sapiens, UniProt O76039); conditions: 10 µM
T7 construct: purchased DiscoverX (KINOMEscan)

[8] = target: T8, CSNK1G2 (Homo sapiens, UniProt P78368); conditions: 10 µM
T8 construct: purchased DiscoverX (KINOMEscan)

[9] = target: T9, DRAK2 (Homo sapiens, UniProt O94768); conditions: 10 µM
T9 construct: purchased DiscoverX (KINOMEscan)

[10] = target: T10, EPHA4 (Homo sapiens, UniProt P54764); conditions: 10 µM
T10 construct: purchased DiscoverX (KINOMEscan)

[11] = target: T11, EPHA6 (Homo sapiens, UniProt Q9UF33); conditions: 10 µM
T11 construct: purchased DiscoverX (KINOMEscan)

[12] = target: T12, FLT1 (Homo sapiens, UniProt P17948); conditions: 10 µM
T12 construct: purchased DiscoverX (KINOMEscan)

[13] = target: T13, FLT3(K663Q) (Homo sapiens, UniProt P36888, K663Q)
T13 construct: purchased DiscoverX (KINOMEscan)

[14] = target: T14, FLT4 (Homo sapiens, UniProt P35916); conditions: 10 µM
T14 construct: purchased DiscoverX (KINOMEscan)

[15] = target: T15, FYN (Homo sapiens, UniProt P06241); conditions: 10 µM
T15 construct: purchased DiscoverX (KINOMEscan)

[16] = target: T16, GSK3B (Homo sapiens, UniProt P49841); conditions: 10 µM
T16 construct: purchased DiscoverX (KINOMEscan)

[17] = target: T17, HUNK (Homo sapiens, UniProt P57058); conditions: 10 µM
T17 construct: purchased DiscoverX (KINOMEscan)

[18] = target: T18, INSR (Homo sapiens, UniProt P06213); conditions: 10 µM
T18 construct: purchased DiscoverX (KINOMEscan)

[19] = target: T19, LIMK1 (Homo sapiens, UniProt P53667); conditions: 10 µM
T19 construct: purchased DiscoverX (KINOMEscan)

[20] = target: T20, LOK (Homo sapiens, UniProt O94804); conditions: 10 µM
T20 construct: purchased DiscoverX (KINOMEscan)

[21] = target: T21, MELK (Homo sapiens, UniProt Q14680); conditions: 10 µM
T21 construct: purchased DiscoverX (KINOMEscan)

[22] = target: T22, MKNK1 (Homo sapiens, UniProt Q9BUB5); conditions: 10 µM
T22 construct: purchased DiscoverX (KINOMEscan)

[23] = target: T23, MLCK (Homo sapiens, UniProt Q32MK0); conditions: 10 µM
T23 construct: purchased DiscoverX (KINOMEscan)

[24] = target: T24, MRCKB (Homo sapiens, UniProt Q9Y5S2); conditions: 10 µM
T24 construct: purchased DiscoverX (KINOMEscan)

[25] = target: T25, MST1R (Homo sapiens, UniProt Q04912); conditions: 10 µM
T25 construct: purchased DiscoverX (KINOMEscan)

[26] = target: T26, MST4 (Homo sapiens, UniProt Q9P289); conditions: 10 µM
T26 construct: purchased DiscoverX (KINOMEscan)

[27] = target: T27, MTOR (Homo sapiens, UniProt P42345); conditions: 10 µM
T27 construct: purchased DiscoverX (KINOMEscan)

[28] = target: T28, NDR2 (Homo sapiens, UniProt Q9Y2H1); conditions: 10 µM
T28 construct: purchased DiscoverX (KINOMEscan)

[29] = target: T29, PAK4 (Homo sapiens, UniProt O96013); conditions: 10 µM
T29 construct: purchased DiscoverX (KINOMEscan)

[30] = target: T30, PAK6 (Homo sapiens, UniProt Q9NQU5); conditions: 10 µM
T30 construct: purchased DiscoverX (KINOMEscan)

[31] = target: T31, PDGFRB (Homo sapiens, UniProt P09619); conditions: 10 µM
T31 construct: purchased DiscoverX (KINOMEscan)

[32] = target: T32, PFTK1 (Homo sapiens, UniProt O94921); conditions: 10 µM
T32 construct: purchased DiscoverX (KINOMEscan)

[33] = target: T33, PIK4CB (Homo sapiens, UniProt Q9UBF8)
T33 construct: purchased DiscoverX (KINOMEscan)

[34] = target: T34, PRKD1 (Homo sapiens, UniProt Q15139); conditions: 10 µM
T34 construct: purchased DiscoverX (KINOMEscan)

[35] = target: T35, PRKG1 (Homo sapiens, UniProt Q13976); conditions: 10 µM
T35 construct: purchased DiscoverX (KINOMEscan)

[36] = target: T36, PRKX (Homo sapiens, UniProt P51817); conditions: 10 µM
T36 construct: purchased DiscoverX (KINOMEscan)

[37] = target: T37, RET(V804L) (Homo sapiens, UniProt P07949, V804L); conditions: 10 µM
T37 construct: purchased DiscoverX (KINOMEscan)

[38] = target: T38, RIOK2 (Homo sapiens, UniProt Q9BVS4)
T38 construct: T7 phage fusion (kinase-tagged phage); purchased DiscoverX; host or cells: BL21-derived E. coli (T7 phage)

[39] = target: T39, RIPK1 (Homo sapiens, UniProt Q13546); conditions: 10 µM
T39 construct: purchased DiscoverX (KINOMEscan)

[40] = target: T40, ROCK1 (Homo sapiens, UniProt Q13464); conditions: 10 µM
T40 construct: purchased DiscoverX (KINOMEscan)

[41] = target: T41, TNIK (Homo sapiens, UniProt Q9UKE5); conditions: 10 µM
T41 construct: purchased DiscoverX (KINOMEscan)

[42] = target: T42, ZAK (Homo sapiens, UniProt Q9NYL2); conditions: 10 µM
T42 construct: purchased DiscoverX (KINOMEscan)

T38 sequence (Q9BVS4 whole entry, the tested form may be a part): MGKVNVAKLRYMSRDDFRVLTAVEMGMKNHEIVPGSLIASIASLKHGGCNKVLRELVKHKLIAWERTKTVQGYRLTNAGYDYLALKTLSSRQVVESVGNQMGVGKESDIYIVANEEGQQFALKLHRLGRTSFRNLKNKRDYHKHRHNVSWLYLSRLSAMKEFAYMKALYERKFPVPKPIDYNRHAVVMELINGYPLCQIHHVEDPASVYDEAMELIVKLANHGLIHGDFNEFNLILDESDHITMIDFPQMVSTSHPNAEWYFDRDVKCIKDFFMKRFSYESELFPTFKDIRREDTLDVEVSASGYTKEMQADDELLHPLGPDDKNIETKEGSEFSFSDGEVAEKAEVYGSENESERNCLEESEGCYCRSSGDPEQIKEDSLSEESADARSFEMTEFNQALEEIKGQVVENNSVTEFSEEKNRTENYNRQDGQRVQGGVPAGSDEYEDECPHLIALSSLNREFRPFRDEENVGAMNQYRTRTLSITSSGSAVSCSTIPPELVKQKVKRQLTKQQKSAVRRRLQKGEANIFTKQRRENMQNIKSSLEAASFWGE
T33 sequence (Q9UBF8 whole entry): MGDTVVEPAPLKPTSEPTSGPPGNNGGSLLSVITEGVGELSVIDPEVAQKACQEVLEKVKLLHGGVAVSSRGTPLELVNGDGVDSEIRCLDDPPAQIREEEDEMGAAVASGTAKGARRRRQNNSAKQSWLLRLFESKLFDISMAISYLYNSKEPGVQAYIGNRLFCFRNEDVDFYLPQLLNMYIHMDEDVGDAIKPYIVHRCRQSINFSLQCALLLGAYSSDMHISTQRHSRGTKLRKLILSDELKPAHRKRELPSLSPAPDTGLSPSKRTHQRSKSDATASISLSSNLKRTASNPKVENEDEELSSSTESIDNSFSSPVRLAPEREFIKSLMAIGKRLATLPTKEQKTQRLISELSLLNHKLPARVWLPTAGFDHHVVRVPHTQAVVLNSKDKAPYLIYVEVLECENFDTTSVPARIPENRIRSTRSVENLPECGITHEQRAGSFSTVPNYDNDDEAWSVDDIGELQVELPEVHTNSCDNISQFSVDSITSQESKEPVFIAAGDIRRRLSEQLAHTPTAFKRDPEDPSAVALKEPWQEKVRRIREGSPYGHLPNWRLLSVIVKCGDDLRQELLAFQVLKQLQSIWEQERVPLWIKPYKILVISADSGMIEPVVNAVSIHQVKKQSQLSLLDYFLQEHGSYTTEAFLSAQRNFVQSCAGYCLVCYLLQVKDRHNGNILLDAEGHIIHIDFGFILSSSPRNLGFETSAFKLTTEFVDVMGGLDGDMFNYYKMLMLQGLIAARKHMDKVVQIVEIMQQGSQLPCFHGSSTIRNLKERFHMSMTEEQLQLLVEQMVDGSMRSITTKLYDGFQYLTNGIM
T39 sequence (Q13546 whole entry): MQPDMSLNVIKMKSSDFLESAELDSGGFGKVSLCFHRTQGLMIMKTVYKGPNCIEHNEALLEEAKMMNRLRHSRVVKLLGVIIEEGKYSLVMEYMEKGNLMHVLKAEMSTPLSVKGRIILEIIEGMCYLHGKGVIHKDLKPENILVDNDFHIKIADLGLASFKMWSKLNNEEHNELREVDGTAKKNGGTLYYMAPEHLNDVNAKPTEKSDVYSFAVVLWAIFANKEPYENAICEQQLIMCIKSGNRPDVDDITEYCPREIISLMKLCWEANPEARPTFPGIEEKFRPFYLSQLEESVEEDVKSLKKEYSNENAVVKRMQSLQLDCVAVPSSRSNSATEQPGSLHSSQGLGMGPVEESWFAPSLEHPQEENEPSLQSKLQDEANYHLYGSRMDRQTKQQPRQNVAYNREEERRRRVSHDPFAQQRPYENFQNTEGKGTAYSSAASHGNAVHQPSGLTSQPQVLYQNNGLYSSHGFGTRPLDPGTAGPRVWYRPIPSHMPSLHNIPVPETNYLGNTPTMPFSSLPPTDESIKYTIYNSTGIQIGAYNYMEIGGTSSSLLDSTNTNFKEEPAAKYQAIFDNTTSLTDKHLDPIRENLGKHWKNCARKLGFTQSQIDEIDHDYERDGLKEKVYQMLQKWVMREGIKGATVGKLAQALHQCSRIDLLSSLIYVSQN
T35 sequence (Q13976 whole entry): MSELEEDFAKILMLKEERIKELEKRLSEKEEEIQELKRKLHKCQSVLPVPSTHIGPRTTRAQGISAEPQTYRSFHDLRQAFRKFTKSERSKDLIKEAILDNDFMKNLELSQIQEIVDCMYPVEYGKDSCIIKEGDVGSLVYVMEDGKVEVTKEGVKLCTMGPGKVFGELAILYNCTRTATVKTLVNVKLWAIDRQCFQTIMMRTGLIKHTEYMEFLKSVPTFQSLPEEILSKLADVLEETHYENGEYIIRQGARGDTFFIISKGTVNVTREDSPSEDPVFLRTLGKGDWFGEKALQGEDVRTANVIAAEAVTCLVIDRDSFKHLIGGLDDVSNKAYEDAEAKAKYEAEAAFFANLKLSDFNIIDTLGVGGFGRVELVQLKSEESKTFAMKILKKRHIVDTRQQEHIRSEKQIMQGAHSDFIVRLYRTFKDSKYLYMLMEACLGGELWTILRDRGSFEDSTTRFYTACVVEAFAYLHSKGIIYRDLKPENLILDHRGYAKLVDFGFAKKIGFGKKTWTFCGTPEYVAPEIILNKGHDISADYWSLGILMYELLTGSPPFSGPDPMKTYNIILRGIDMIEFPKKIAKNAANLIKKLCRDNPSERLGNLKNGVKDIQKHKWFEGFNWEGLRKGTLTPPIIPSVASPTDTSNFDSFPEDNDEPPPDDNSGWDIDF
T15 sequence (P06241 whole entry): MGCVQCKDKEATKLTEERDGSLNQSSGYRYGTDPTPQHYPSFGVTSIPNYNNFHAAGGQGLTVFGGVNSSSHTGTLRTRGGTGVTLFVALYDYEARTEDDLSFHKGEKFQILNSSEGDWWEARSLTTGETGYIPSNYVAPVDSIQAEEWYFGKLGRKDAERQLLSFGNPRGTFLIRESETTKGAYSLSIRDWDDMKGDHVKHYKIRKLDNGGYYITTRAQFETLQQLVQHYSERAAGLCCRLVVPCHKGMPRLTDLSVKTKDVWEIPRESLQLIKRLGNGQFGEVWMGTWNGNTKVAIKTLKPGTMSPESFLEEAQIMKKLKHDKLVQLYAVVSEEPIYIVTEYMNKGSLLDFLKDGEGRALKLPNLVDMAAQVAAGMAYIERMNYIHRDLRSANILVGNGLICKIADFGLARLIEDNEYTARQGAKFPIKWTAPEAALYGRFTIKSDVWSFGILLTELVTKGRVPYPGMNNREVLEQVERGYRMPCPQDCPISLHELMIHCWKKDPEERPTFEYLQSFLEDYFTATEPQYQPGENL
T31 sequence (P09619 33-1106): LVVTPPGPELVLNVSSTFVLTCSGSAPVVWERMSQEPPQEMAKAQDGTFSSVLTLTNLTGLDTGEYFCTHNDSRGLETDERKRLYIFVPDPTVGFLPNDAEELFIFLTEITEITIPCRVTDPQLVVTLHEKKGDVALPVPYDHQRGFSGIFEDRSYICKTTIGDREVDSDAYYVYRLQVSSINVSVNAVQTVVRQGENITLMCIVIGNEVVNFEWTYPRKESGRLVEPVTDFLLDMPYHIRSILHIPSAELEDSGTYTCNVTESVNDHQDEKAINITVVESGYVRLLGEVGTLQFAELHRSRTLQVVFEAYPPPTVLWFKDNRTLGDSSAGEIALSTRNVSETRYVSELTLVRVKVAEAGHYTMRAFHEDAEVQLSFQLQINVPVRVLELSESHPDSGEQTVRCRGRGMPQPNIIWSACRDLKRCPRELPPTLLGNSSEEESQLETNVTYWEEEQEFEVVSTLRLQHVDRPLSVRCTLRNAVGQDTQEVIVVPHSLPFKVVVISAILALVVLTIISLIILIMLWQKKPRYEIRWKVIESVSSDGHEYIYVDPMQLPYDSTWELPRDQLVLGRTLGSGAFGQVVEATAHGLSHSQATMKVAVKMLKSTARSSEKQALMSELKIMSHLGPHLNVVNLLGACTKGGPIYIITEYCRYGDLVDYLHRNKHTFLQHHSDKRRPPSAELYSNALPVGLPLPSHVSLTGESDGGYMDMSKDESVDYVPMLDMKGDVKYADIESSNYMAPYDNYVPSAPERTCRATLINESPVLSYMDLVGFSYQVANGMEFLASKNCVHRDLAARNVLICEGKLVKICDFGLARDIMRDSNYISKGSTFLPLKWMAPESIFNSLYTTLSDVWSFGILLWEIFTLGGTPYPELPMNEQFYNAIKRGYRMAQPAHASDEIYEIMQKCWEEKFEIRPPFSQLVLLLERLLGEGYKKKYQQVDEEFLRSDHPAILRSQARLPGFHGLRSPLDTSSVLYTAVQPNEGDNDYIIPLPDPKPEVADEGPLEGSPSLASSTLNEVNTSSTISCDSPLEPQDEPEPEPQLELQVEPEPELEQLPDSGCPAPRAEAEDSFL
T36 sequence (P51817 whole entry): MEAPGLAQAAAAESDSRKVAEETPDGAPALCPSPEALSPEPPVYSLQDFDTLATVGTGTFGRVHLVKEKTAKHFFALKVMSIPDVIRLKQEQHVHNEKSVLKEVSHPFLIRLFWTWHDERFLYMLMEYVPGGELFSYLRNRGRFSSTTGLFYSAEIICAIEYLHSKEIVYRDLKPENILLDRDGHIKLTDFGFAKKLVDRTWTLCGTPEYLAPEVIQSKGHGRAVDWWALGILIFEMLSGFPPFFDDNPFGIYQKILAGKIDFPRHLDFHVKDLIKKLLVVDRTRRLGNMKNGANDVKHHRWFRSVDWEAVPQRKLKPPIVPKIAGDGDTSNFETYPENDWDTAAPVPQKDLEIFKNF
T9 sequence (O94768 whole entry): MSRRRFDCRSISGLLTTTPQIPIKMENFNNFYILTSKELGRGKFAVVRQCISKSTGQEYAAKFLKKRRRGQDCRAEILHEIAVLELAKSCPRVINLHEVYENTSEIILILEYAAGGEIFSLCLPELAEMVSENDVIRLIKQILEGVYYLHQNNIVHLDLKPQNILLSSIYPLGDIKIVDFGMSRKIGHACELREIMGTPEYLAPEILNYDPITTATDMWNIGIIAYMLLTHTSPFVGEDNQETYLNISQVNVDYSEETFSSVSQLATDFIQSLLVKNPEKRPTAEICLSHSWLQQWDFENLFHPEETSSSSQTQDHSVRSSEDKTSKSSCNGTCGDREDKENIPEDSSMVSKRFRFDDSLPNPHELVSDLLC

Question: Which kinase inhibition [1] does the source give for `Nc1ccc(N=Nc2ccccc2)c(N)n1` [phenazopyridine, 2,6-diamino-3-(phenylazo)pyridine] here?
Answer: The kinase inhibition was 79.

Question: What about the kinase inhibition [2] of the same molecule?
Answer: Its kinase inhibition is 62.

Question: What about the kinase inhibition [3] of the same molecule?
Answer: Its kinase inhibition is 48.

Question: And the kinase inhibition [4]?
Answer: The kinase inhibition was 100.

Question: What about the kinase inhibition [5] of the same molecule?
Answer: The kinase inhibition was 89.

Question: What about the kinase inhibition [6] of the same molecule?
Answer: The kinase inhibition was 100.

Question: What about the kinase inhibition [7] of the same molecule?
Answer: The kinase inhibition was 100.

Question: What about the kinase inhibition [8] of the same molecule?
Answer: The kinase inhibition was 82.

Question: And the kinase inhibition [9]?
Answer: Its kinase inhibition is 100.

Question: What about the kinase inhibition [10] of the same molecule?
Answer: The kinase inhibition was 86.

Question: What about the kinase inhibition [11] of the same molecule?
Answer: The kinase inhibition was 91.

Question: And the “remaining binding (% of control)” value [12]?
Answer: Its value is 90.

Question: And the “remaining binding (% of control)” value ([13]; FLT3(K663Q), 10 µM)?
Answer: Its value is 21.

Question: And the remaining binding at 10 µM ([13]; FLT3 as printed (Table S4: FLT3(K663Q)), read-out: % Of control)?
Answer: Its remaining binding at 10 µM is 21%.

Question: And the kinase inhibition [14]?
Answer: Its kinase inhibition is 100.

Question: And the “remaining binding (% of control)” value [15]?
Answer: The value was 100.

Question: What about the kinase inhibition [16] of the same molecule?
Answer: The kinase inhibition was 100.

Question: What about the kinase inhibition [17] of the same molecule?
Answer: Its kinase inhibition is 100.

Question: What about the kinase inhibition [18] of the same molecule?
Answer: The kinase inhibition was 75.

Question: What about the kinase inhibition [19] of the same molecule?
Answer: The kinase inhibition was 100.

Question: What about the kinase inhibition [20] of the same molecule?
Answer: The kinase inhibition was 100.

Question: What about the kinase inhibition [21] of the same molecule?
Answer: The kinase inhibition was 79.

Question: What about the kinase inhibition [22] of the same molecule?
Answer: The kinase inhibition was 37.

Question: And the kinase inhibition [23]?
Answer: Its kinase inhibition is 96.

Question: What about the kinase inhibition [24] of the same molecule?
Answer: Its kinase inhibition is 100.

Question: And the kinase inhibition [25]?
Answer: The kinase inhibition was 94.

Question: And the kinase inhibition [26]?
Answer: Its kinase inhibition is 96.

Question: What about the kinase inhibition [27] of the same molecule?
Answer: The kinase inhibition was 74.

Question: And the kinase inhibition [28]?
Answer: Its kinase inhibition is 100.

Question: And the kinase inhibition [29]?
Answer: Its kinase inhibition is 100.

Question: What about the kinase inhibition [30] of the same molecule?
Answer: The kinase inhibition was 100.

Question: And the kinase inhibition [31]?
Answer: Its kinase inhibition is 44.

Question: And the kinase inhibition [32]?
Answer: The kinase inhibition was 100.

Question: And the “remaining kinase binding (% of control)” value ([33]; 10 µM)?
Answer: Its value is 4.6.

Question: What about the remaining binding at 10 µM ([33]; read-out: % Of control) of the same molecule?
Answer: The remaining binding at 10 µM was 4.6%.

Question: What about the kinase inhibition [34] of the same molecule?
Answer: Its kinase inhibition is 100.

Question: And the kinase inhibition [35]?
Answer: The kinase inhibition was 92.

Question: And the kinase inhibition [36]?
Answer: Its kinase inhibition is 91.

Question: What about the kinase inhibition [37] of the same molecule?
Answer: Its kinase inhibition is 100.

Question: And the “remaining binding (% of control)” value ([38]; 10 µM)?
Answer: Its value is 0.

Question: And the remaining binding at 10 µM ([38]; read-out: % Of control)?
Answer: Its remaining binding at 10 µM is 0%.

Question: And the “remaining binding (% of control)” value [39]?
Answer: The value was 100.

Question: What about the kinase inhibition [40] of the same molecule?
Answer: The kinase inhibition was 78.

Question: And the kinase inhibition [41]?
Answer: The kinase inhibition was 75.

Question: And the kinase inhibition [42]?
Answer: Its kinase inhibition is 100.
